“Also recorded” adds a separate entry of the source.
Legend:
[1] = biological target: TTR (Homo sapiens (Human), UniProt P02766); experiment: Acid-induced TTR aggregation assay; format: biochemical; conditions: 50 μM compound, pH 4.0, 72 h, 37° C.
Description: FIG. 6. […] After incubation in the presence of 50 μM Tafamidis, 50 μM Benzbromarone and 50 μM (±)-44, samples were crosslinked and subjected to SDS-PAGE followed by western blotting with TTR antibodies. The representative blot of at least three independent experiments is presented. (B, C), Bar graphs represent pixel volumes of TTR high molecular weight aggregates (B) and monomers (C). The vertical axes represent the ratio of pixel volume means±S.D. of the scanned bands on the immunoblots in arbitrary units. Statistical significance was determined by one-way ANOVA with Holm-Sidak post hoc test; *, p≤0.05; **, p≤0.01; ***, p≤0.001; ****, p≤0.0001 compare to TTR aggregation (pH 4.0)+DMSO group, #, p≤0.05; ##, p≤0.01; ###, p≤0.001; ####, p≤0.0001 compare to TTR without aggregation (pH 7.5) group.
The ability of test compounds to prevent TTR aggregation was evaluated under the acidic conditions that favor TTR aggregation and fibril formation. […] At the end of the incubation, 3.5 μl 500 mM sodium phosphate (Sigma #S5136) buffer pH=8.0 was added to each sample for neutralization and 0.6 μl 5% CHAPS (Sigma #C5070) as a detergent to prevent reassociation of protein. The cross-linking was performed by adding 1.5 μl 5% glutaraldehyde solution (Sigma #G6257). After 4 min, the reaction was stopped by the addition of 2.5 μl freshly made 5% NaBH4. Samples were subjected to TTR western blotting with prealbumin antibodies (1:500; Dako #A0002). Band intensity for TTR monomer and TTR aggregates was quantified from scanned images of the blots.

[2] = Metabolic stability and clearance in human liver microsomes; format: in vitro ADME
Description: The results of metabolic stability determinations for novel compounds and testosterone (positive control) were conducted in the presence of human, rat, mouse, and monkey liver microsomes. Values shown are percent of parent remaining after a 30 minute incubation. All measurements were done in duplicate. Assay results for testosterone were within an acceptable range.
Mixed-gender human liver microsomes (Lot #1710084), male Sprague-Dawley rat liver microsomes (Lot #1610290), male CD-1 mouse liver microsomes (Lot #1710069), and male Cynomolgous liver microsomes (Lot #1510193) were purchased from XenoTech. The reaction mixture, minus NADPH, was prepared as described below. The test article was added into the reaction mixture at a final concentration of 1 μM. The control compound, testosterone, was run simultaneously with the test article in a separate reaction. An aliquot of the reaction mixture (without cofactor) was equilibrated in a shaking water bath at 37° C. for 3 minutes. The reaction was initiated by the addition of cofactor, and the mixture was incubated in a shaking water bath at 37° C. Aliquots (100 μL) were withdrawn at 0, 10, 20, 30, and 60. […] Half-lives were calculated using GraphPad software, fitting to a single-phase exponential decay equation.

[3] = biological target: serum RBP4 (Mus musculus (Mouse), UniProt Q00724); experiment: Serum RBP4 after long-term oral dosing in Abca4−/−/Rdh8−/− mice; format: in vivo; conditions: 25 mg/kg daily in chow
Description: FIG. 9. Effect of the long-term oral (±)-44 administration in Abca4^−/−/Rdh8^−/− mice on serum RBP4 levels. Serum RBP4 levels were measured in vehicle-treated Abca4^−/−/Rdh8^−/− mice (squares) and (±)-44-treated Abca4^−/−/Rdh8^−/− mice (triangles) at the indicated time points. […] Error bars show S.D. Each data point on the graph represents a serum RBP4 concentration from an individual animal.
Blood samples were collected from a tail vein. Whole blood was drawn into a centrifuge tube and was allowed to clot at room temperature for 30 minutes followed by centrifugation at 2000 g for 15 minutes at […] to collect serum. Aliquots of plasma samples collected in the mouse pharmacokinetic study were analyzed for the RBP4 concentration using the RBP4 (mouse/rat) dual ELISA kit (AdipoGen, San Diego, CA) following the manufacturer's instructions. In adi-hRBP4 transgenic mouse experiments, blood samples were collected from a tail vein. […] Mouse serum RBP4 (produced predominantly in the liver) was measured using the RBP4 (mouse/rat) dual ELISA kit (AdipoGen, San Diego, CA; catalog number AG-45A-0012YTP-KI01)
(±)-44 was formulated into a Picolab 5053 chow to ensure a daily dosing of 25 mg/kg of (±)-44. […] Following the 10 weeks of dosing, the eyecups of treated and untreated Abca4^−/−/Rdh8^−/− mice as well as the eyecups of the reference wild type mice were collected for the quantitative A2E analysis.

[4] = test system: Abca4−/−/Rdh8−/− mice; experiment: A2E accumulation in eyes of Abca4−/−/Rdh8−/− mice; format: in vivo, mouse; conditions: 25 mg/kg daily in chow, 10 weeks, eyecups, HPLC
From the text: FIG. 10. Effect of the long-term oral (±)-44 administration on the level of the lipofuscin fluorophore A2E in eyes of the Abca4^−/−/Rdh8^−/− mice. Bisretinoids were extracted from the eyecups of vehicle-treated wild type mice (circles), vehicle-treated Abca4^−/−/Rdh8^−/− knockout mice (squares), and (±)-44-treated Abca4^−/−/Rdh8^−/− mice (triangles) after 10 weeks of dosing and analyzed by HPLC. A significant 77% reduction in A2E concentration was detected in (±)-44-treated Abca4^−/−/Rdh8^−/− mice compared with vehicle-treated double-knockout controls; one-way ANOVA with Holm-Sidak post hoc test, p<0.0001 (****).
(±)-44 was formulated into a Picolab 5053 chow to ensure a daily dosing of 25 mg/kg of (±)-44. Long-term 10-week dosing of the compound formulated into a chow was conducted in Abca4^−/−/Rdh8^−/− mice. The age-matched control group of wild-type C57BL/6J mice was kept on a standard Picolab 5053 chow. The age-matched reference group of mice was used for defining the basal level of A2E in mice in the absence of the Abca4 and Rdh8 ablation. […] Following the 10 weeks of dosing, the eyecups of treated and untreated Abca4^−/−/Rdh8^−/− mice as well as the eyecups of the reference wild type mice were collected for the quantitative A2E analysis.

## Cc1cc(C(=O)O)nc(N2CCC(COc3ccccc3C(F)(F)F)C2)n1 (racemic) [Compound (±)-44, (±)-6-Methyl-2-(3-((2-(trifluoromethyl)phenoxy)methyl)pyrrolidin-1-yl)pyrimidine-4-carboxylic Acid]
[1]
  formation of high molecular weight TTR species: reduces the formation of high molecular weight TTR forms; also recorded: significantly reduced the formation of high molecular weight TTR species
[1]; vs DMSO
  TTR monomer band intensities: Significant increase
  fold reduction in formation of high molecular weight aggregates: 4.7 fold
[2]; 30 minute incubation
  Liver Microsomal Stability (% remaining at 30 min), HLM: 105%
[2]; both sexes, human liver microsomes, read-out: Microsomal CLint, H
  microsomal CLint at 1 μM: < 0.0231 µL/min/mg
[3]; 10 weeks
  serum RBP4 reduction compared to untreated Abca4−/−/Rdh8−/− mice: 84%
[3]; week 10, Abca4−/−/Rdh8−/− mice
  serum RBP4 reduction compared with baseline: 76%
[4]
  reduction in A2E concentration vs vehicle-treated Abca4−/−/Rdh8−/− mice: 77%

From patent US20230348415A1, “BISPECIFIC ANTAGONISTS OF RETINOL-BINDING PROTEIN 4 THAT STABILIZE TRANSTHYRETIN TETRAMERS, THEIR PREPARATION, AND USE IN THE TREATMENT OF COMMON AGE-RELATED COMORBIDITIES” (The Trustees of Columbia University in the City of New York, priority 2020, published 2023)
